Source: US20250388605A1, “HETEROBIFUNCTIONAL COMPOUNDS AND METHODS OF TREATING DISEASE” (Halda Therapeutics OpCo, Inc., priority 2022, published 2025)

Assays:
BRD4-BD2 = target: T1, BRD4-BD2 (Homo sapiens, UniProt O60885); assay: Binding affinity to BRD4-BD2 (bromoKdELECT assay); settings: 11-point 3-fold dilution series
T1 construct: made in house; host or cells: T7 phage grown in an E. coli host derived from the BL21 strain
Method: (§1) Compounds were tested using a bromoKdELECT assay. T7 phage strains displaying bromodomains were grown in parallel in 24-well blocks in an E. coli host derived from the BL21 strain. E. coli were grown to log-phase and infected with T7 phage from a frozen stock (multiplicity of infection=0.4) and incubated with shaking at 32° C. until lysis (90-150 minutes). The lysates were centrifuged (5,000×g) and filtered ([…]) to remove cell debris. Streptavidin-coated magnetic beads were treated with biotinylated small molecule or acetylated peptide ligands for 30 minutes at room temperature to generate affinity resins for bromodomain assays. The liganded beads were blocked with excess biotin and washed with blocking buffer (SeaBlock (Pierce), 1% BSA, 0.05% Tween 20, 1 mM DTT) to remove unbound ligand and to reduce nonspecific phage binding. Binding reactions were assembled by combining bromodomains, liganded affinity beads, and test compounds in 1× binding buffer (17% SeaBlock, 0.33×PBS, 0.04% Tween 20, 0.02% BSA, 0.004% Sodium azide, 7.4 mM DTT). Test compounds were prepared as 1000× stocks in 100% DMSO. Kds were determined using an 11-point 3-fold compound dilution series with one DMSO control point. All compounds for Kd measurements are distributed by acoustic transfer (non-contact dispensing) in 100% DMSO. The compounds were then diluted directly into the assays such that the final concentration of DMSO was 0.09%. All reactions performed in polypropylene 384-well plates. Each was a final volume of 0.02 ml. The assay plates were incubated at room temperature with shaking for 1 hour and the affinity beads were washed with wash buffer (1×PBS, 0.05% Tween 20). The beads were then resuspended in elution buffer (1×PBS, 0.05% Tween 20, 2 μM non-biotinylated affinity ligand) and incubated at room temperature with shaking for 30 minutes. The bromodomain concentration in the eluates was measured by qPCR.

[1] = tested on: T-Rex 293 cell line SC3 cells having increased expression of androgen receptor protein due to exposure to doxycycline; assay: Cellular growth inhibition, T-Rex 293 SC3 cells with doxycycline (increased androgen receptor expression), CellTiter-Glo; assay type: cell-based; settings: T-Rex 293 SC3 cells with 10 ng/mL doxycycline (increased androgen receptor expression), 72 hours, CellTiter-Glo 2.0
Method in brief: (§2)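 Growth inhibition is measured in an inducible AR-expressing T-Rex 293 clone, SC3, cultured with or without 10 ng/mL doxycycline in hormone-depleted medium. Test compounds are applied for 72 hours. GI50 values derive from CellTiter-Glo 2.0 signal fitted by four-parameter regression.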

[2] = tested on: T-Rex 293 cell line SC3 cells lacking increased expression of androgen receptor protein; assay: Cellular growth inhibition, T-Rex 293 SC3 cells without doxycycline (no increased androgen receptor expression), CellTiter-Glo; assay type: cell-based; settings: T-Rex 293 SC3 cells not exposed to doxycycline (no increased androgen receptor expression), 72 hours
Method in brief: as §2

VCaP cells = assay: Cellular growth inhibition assay for VCaP cells, CellTiter-Glo; assay type: cell-based, human; settings: 72 hours
Method in brief: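 GI50 values come from four-parameter curve fits of luminescence data normalized to a zero baseline. Compound, in medium with 0.5% DMSO, was added one day after plating and left for 72 h before CellTiter-Glo 2.0 addition.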

BRD4-BD1 = target: T2, BRD4-BD1 (Homo sapiens, UniProt O60885); assay: Binding affinity to BRD4-BD1 (bromoKdELECT assay); settings: 11-point 3-fold dilution series
T2 construct: made in house; host or cells: T7 phage grown in an E. coli host derived from the BL21 strain
Method: as §1, with “[…]” for “μM”

Row | Kd (BRD4-BD2) | GI50 (VCaP cells; Homo sapiens) | Kd (BRD4-BD1) | GI50 (VCaP cells) | SMILES | GI50 [1] | GI50 [2]
1 | 50 to 500 nM | < 500 nM | 50 to 500 nM |  | CCS(=O)(=O)Nc1ccc(OCC(OCCOC2CCN(c3ncc(C(=O)N[C@H]4C(C)(C)[C@H](Oc5ccc(C#N)c(Cl)c5)C4(C)C)cn3)CC2)C2CC2)c(-c2cn(C)c(=O)c3[nH]ccc23)c1 (stereo partly drawn) [Compound I-68, N-((1r, 3r)-3-(3-chloro-4-cyanophenoxy)-2,2,4,4-tetramethylcyclobutyl)-2-(4-(2-(1-cyclopropyl-2-(4-(ethylsulfonamido)-2-(6-methyl-7-oxo-6,7-dihydro-1H-pyrrolo[2,3-c]pyridin-4-yl)phenoxy)ethoxy)ethoxy)piperidin-1-yl)pyrimidine-5-carboxamide] | < 500 nM | > 3000 nM
2 | 50 to 500 nM | < 500 nM | 500 to 2500 nM |  | CN(c1ccc(Oc2cccc(OCCN3CCN(c4ncc(C(=O)N[C@H]5C(C)(C)[C@H](Oc6ccc(C#N)c(Cl)c6)C5(C)C)cn4)CC3)c2)c(-c2cn(C)c(=O)c3[nH]ccc23)c1)S(=O)(=O)C1CC1 [Compound I-95] | < 500 nM | < 500 nM
3 | < 50 nM | < 500 nM | 50 to 500 nM |  | CCS(=O)(=O)Nc1ccc(Oc2ccc(CCOC3CCN(c4ncc(C(=O)N[C@H]5C(C)(C)[C@H](Oc6ccc(C#N)c(Cl)c6)C5(C)C)cn4)CC3)cc2)c(-c2cn(C)c(=O)c3[nH]ccc23)c1 [Compound I-151] | < 500 nM | < 500 nM
4 | 500 to 2500 nM | < 500 nM | > 2500 nM |  | CN(c1ccc(Oc2cccc(OCCOC3CCN(c4ncc(C(=O)N[C@H]5C(C)(C)[C@H](Oc6ccc(C#N)c(Cl)c6)C5(C)C)cn4)CC3)c2)c(-c2cn(C)c(=O)c3[nH]ccc23)c1)S(=O)(=O)C1CC1 [Compound I-49] | < 500 nM | > 3000 nM
5 | < 50 nM | < 500 nM | 50 to 500 nM |  | CCS(=O)(=O)Nc1ccc(Oc2cccc(OCCCN3CCN(CCCOC4CCN(c5ncc(C(=O)N[C@H]6C(C)(C)[C@H](Oc7ccc(C#N)c(Cl)c7)C6(C)C)cn5)CC4)CC3)c2)c(-c2cn(C)c(=O)c3[nH]ccc23)c1 [Compound I-10] | < 500 nM | < 500 nM
6 | 500 to 2500 nM | < 500 nM | > 2500 nM |  | CN(c1ccc(Oc2cccc(OCCOC3CCN(c4ncc(C(=O)N[C@H]5C(C)(C)[C@H](Oc6ccc(C#N)c(Cl)c6)C5(C)C)cn4)CC3)c2)c(-c2cn(C)c(=O)c3[nH]ccc23)c1)S(C)(=O)=O [Compound I-51] | < 500 nM | < 500 nM
7 | 500 to 2500 nM | < 500 nM | > 2500 nM |  | CCS(=O)(=O)N(C)c1ccc(Oc2cccc(OCCOC3CCN(c4ncc(C(=O)N[C@H]5C(C)(C)[C@H](Oc6ccc(C#N)c(Cl)c6)C5(C)C)cn4)CC3)c2)c(-c2cn(C)c(=O)c3[nH]ccc23)c1 [Compound I-52] | < 500 nM | < 500 nM
8 | < 50 nM |  | 50 to 500 nM | < 500 nM | CCS(=O)(=O)Cc1ccc(Oc2cccc(CCCN3CCN(c4ncc(C(=O)N[C@H]5C(C)(C)[C@H](Oc6ccc(C#N)c(Cl)c6)C5(C)C)cn4)CC3)c2)c(-c2cn(C)c(=O)c3[nH]ccc23)c1 [Compound I-133] | < 500 nM | < 500 nM
9 | < 50 nM |  | 50 to 500 nM | < 500 nM | CCS(=O)(=O)Cc1ccc(Oc2cccc(CCCN3CCN(c4ncc(C(=O)N[C@H]5C(C)(C)[C@H](Oc6ccc(C#N)c(Cl)c6)C5(C)C)cn4)CC3)c2F)c(-c2cn(C)c(=O)c3[nH]ccc23)c1 [Compound I-144] | < 500 nM | < 500 nM

Second part, the compound before the results:

Row | SMILES | Kd (BRD4-BD2) | GI50 (VCaP cells; Homo sapiens) | Kd (BRD4-BD1) | GI50 (VCaP cells) | GI50 [1] | GI50 [2]
10 | CCS(=O)(=O)c1ccc(Oc2cccc(OCCCC3CCN(c4ncc(C(=O)N[C@H]5C(C)(C)[C@H](Oc6ccc(C#N)c(Cl)c6)C5(C)C)cn4)CC3)c2F)c(-c2cn(C)c(=O)c3[nH]ccc23)c1 [Compound I-140] | > 2500 nM | 1500 to 3000 nM | > 2500 nM |  | < 500 nM | < 500 nM
11 | CCS(=O)(=O)Nc1ccc(Oc2cccc(OCCOC3CCN(c4ncc(C(=O)N[C@H]5C(C)(C)[C@H](Oc6ccc(C#N)c(Cl)c6)C5(C)C)cn4)CC3)c2F)c(-c2cn(C)c(=O)c3[nH]ccc23)c1 [Compound I-64] | < 50 nM | < 500 nM | > 2500 nM |  | < 500 nM | < 500 nM
12 | CCS(=O)(=O)Cc1ccc(Oc2cccc(OCCC3CCN(c4ncc(C(=O)N[C@H]5C(C)(C)[C@H](Oc6ccc(C#N)c(Cl)c6)C5(C)C)cn4)CC3)c2)c(-c2cn(C)c(=O)c3[nH]ccc23)c1 [Compound I-109] | 500 to 2500 nM |  | > 2500 nM | < 500 nM | < 500 nM | < 500 nM
13 | Cn1cc(-c2cc(NS(=O)(=O)CC(F)(F)F)ccc2Oc2cccc(OCCOC3CCN(c4ncc(C(=O)N[C@H]5C(C)(C)[C@H](Oc6ccc(C#N)c(Cl)c6)C5(C)C)cn4)CC3)c2F)c2cc[nH]c2c1=O [Compound I-153] | < 50 nM | < 500 nM | 500 to 2500 nM |  | < 500 nM | < 500 nM
14 | CCS(=O)(=O)Nc1ccc(OCC(OCCCOC2CCN(c3ncc(C(=O)N[C@H]4C(C)(C)[C@H](Oc5ccc(C#N)c(Cl)c5)C4(C)C)cn3)CC2)C2CC2)c(-c2cn(C)c(=O)c3[nH]ccc23)c1 (stereo partly drawn) [Compound I-187] | 500 to 2500 nM |  | 50 to 500 nM | < 500 nM | < 500 nM | > 3000 nM
15 | CCS(=O)(=O)Nc1ccc(OC(COCCOC2CCN(c3ncc(C(=O)N[C@H]4C(C)(C)[C@H](Oc5ccc(C#N)c(Cl)c5)C4(C)C)cn3)CC2)C2CC2)c(-c2cn(C)c(=O)c3[nH]ccc23)c1 (stereo partly drawn) [Compound I-67] | 50 to 500 nM | < 500 nM | 50 to 500 nM |  | < 500 nM | < 500 nM
16 | Cn1cc(-c2cc(NS(=O)(=O)C3CC3)ccc2Oc2cccc(OCCOC3CCN(c4ncc(C(=O)N[C@H]5C(C)(C)[C@H](Oc6ccc(C#N)c(Cl)c6)C5(C)C)cn4)CC3)c2)c2cc[nH]c2c1=O [Compound I-48, N-((1r, 3r)-3-(3-chloro-4-cyanophenoxy)-2,2,4,4-tetramethylcyclobutyl)-2-(4-(2-(3-(4-(cyclopropanesulfonamido)-2-(6-methyl-7-oxo-6,7-dihydro-1H-pyrrolo[2,3-c]pyridin-4-yl)phenoxy)phenoxy)ethoxy)piperidin-1-yl)pyrimidine-5-carboxamide] | 500 to 2500 nM | < 500 nM | > 2500 nM |  | < 500 nM | > 3000 nM
17 | CCS(=O)(=O)Nc1ccc(Oc2cccc(OCCCN3CCN(CCCN(C)c4ncc(C(=O)N[C@H]5C(C)(C)[C@H](Oc6ccc(C#N)c(Cl)c6)C5(C)C)cn4)CC3)c2)c(-c2cn(C)c(=O)c3[nH]ccc23)c1 [Compound I-5] | < 50 nM |  | 50 to 500 nM |  | < 500 nM | 500 to 1500 nM
